Source: article PMC9728581 (Frontiers in Pharmacology, 2022)

Tests used:
[1] = Population pharmacokinetic (NONMEM) model of unbound teicoplanin in Chinese adult patients; type: in vivo, human
Method: The pregnant female patients, hemodialysis patients, disseminated intravascular coagulation patients, and continuous renal replacement therapy patients were excluded.
(§1) However, prescribed dosing regimens were at the discretion of treating physicians based on the severity of the patient’s disease and the standard dosing regimen was not always followed. The daily dose range of patients included in this study was 50–1,600 mg.
(§2) Blood samples were typically collected within 30 min to 1 h preceding the 4th dose and the 6th dose, and depending on the actual clinical situation, blood samples might be taken at other time for TDM during the treatment. The Plasma samples were placed in a Centrifree® ultrafiltration device and placed in a 37°C water bath for 30 min, followed by centrifugation at 37°C, 1,500 × g for 30 min, and the ultrafiltrate was directly used for the determination of unbound concentration by ultra-performance liquid chromatography-tandem mass spectrometry (UPLC-MS/MS) method. […] The average relative recovery ratio was 97.9%, and the matrix effect factor was 0.97. Details of blood handling, storage and measurement have been described previously ([Fu et al., 2020]).
The PopPK modeling was performed using NONMEM (non-linear mixed effects modeling, v7.2, Globomax Corp, United States), and Wings for NONMEM (v6.1, Nick Holford, University of Auckland, New Zealand) was used as an auxiliary software for NONMEM execution. R (v3.6.1, Saik Urien, U.R.C. Paris Centre, Hopital Tarnier, France) was used for exploratory data analysis, data assembly, and graphical presentation of modeling and simulation results.
The parameter estimation method for PopPK model was FOCEI (first order conditional estimation with η-ε interaction option). The inter-individual variability (IIV) of the parameters were estimated using exponential random effects. θi=θ∙e^ηi (5) Where θi is the estimated parameter value of the individual i, θ represents the typical population parameter, and ηi (IIV) is assumed to follow the normal distribution with mean of 0 and variance of ω^2 and was estimated during model fitting.
The additive, proportional, and mixed residual error models were compared separately, and finally the mixed residual error model was selected for data fitting.
Covariate modeling analysis was used to explore the source of variability.
The stepwise covariate modeling approach was used to establish the covariate model in this analysis. During the forward selection step, all covariates were added to the PK parameters in the base model one by one. Covariates were screened based on the changes in objective function values (OFV) and graphical evaluation. The covariate with a significant effect (p < 0.05, e.g., df = 1, ΔOFV ≥ 3.84) would be added to the basic model to build a full model. Based on the full model, the existing covariates were deleted one by one as the backward elimination step. For each deleted covariate, the increase in OFV should be ≥ 10.83 (p < 0.001, df = 1), otherwise, this covariate should be excluded from the final model.
Continuous covariates (e.g., WT) were added to the model according to the following equation. θi=θTV×(covi/covmedian)^θx (7) Where θi is the parameter value of the ith individual; θTV is the population typical value of PK parameters; covi is the covariate value of the ith individual; covmedian is the median value of this covariate; θx is the influence coefficient of the covariate on the parameters.
Categorical covariates (e.g., gender) were added to the model according to the following equations: θi=θTV+θx,cov=xl if Cov=Xl (8) θi=θTV if Cov=X0 (9) Where θx,cov=xl is the change in a parameter when covariate X is at level l compared with the reference level (0).
The performance and stability of the final model were estimated using non-parametric bootstrap. 1,000 datasets generated by random sampling were evaluated. […]

[2] = ref Pauluzzi et al., 1987; cited from earlier work
Description: Previous studies have shown that adverse events inc ...

[3] = Unbound teicoplanin plasma concentration, ultrafiltration and UPLC-MS/MS; type: in vivo, human; settings: plasma ultrafiltrate (Centrifree, 37°C), 103 observations, 72 patients, daily dose 50–1,600 mg i.v.
Method: as §1, §2

serum albumin = settings: ref Gao et al., 2020; cited from earlier work
Method: In this study, the protein binding ratio was calculated as the average value of 92.5%.

[4] = non-parametric bootstrap, 1,000 datasets

Substance: teicoplanin
- θALB, bootstrap median [1, 4]: 1.55 g/L
- θCL, bootstrap median [1, 4]: 11.38 L/h
- θV, bootstrap median [1, 4]: 822 L
- θeGFR, bootstrap median [1, 4]: 0.501 mL/min
- θV, population typical value of the volume of distribution (NONMEM estimate) ([1]; unbound teicoplanin, one-compartment model, 72 patients, 103 observations, at ALB 32): 811 L
- θCL, population typical value of clearance (NONMEM estimate) ([1]; unbound teicoplanin, one-compartment, first-order elimination, 72 Chinese adult patients, 103 observations, i.v. infusion, at eGFR 84): 11.7 L/h
- total Ctrough above which thrombocytopenia was more common [2]: > 60 µg/mL
- Unbound teicoplanin concentrations, range [3]: 0.4 to 4.4 µg/mL
- Unbound teicoplanin concentrations, mean ± SD ([3]; mostly trough, SD): 1.5 ± 0.9 µg/mL
- bound to serum albumin (protein binding ratio) (serum albumin): 90%–95%
